Substitutions are numbered along the chain they refer to.
Key:
human wt P2X4 receptor = molecular target: T1, human wt P2X4 receptor (Homo sapiens, UniProt Q99571); assay: ATP-induced calcium influx assay, human wt P2X4 receptor in 1321N1 astrocytoma cells; assay type: cell-based; conditions: wt hP2X4; calcium influx
T1 construct: expressed in transfected cells
T1 sequence (Q99571 1-388): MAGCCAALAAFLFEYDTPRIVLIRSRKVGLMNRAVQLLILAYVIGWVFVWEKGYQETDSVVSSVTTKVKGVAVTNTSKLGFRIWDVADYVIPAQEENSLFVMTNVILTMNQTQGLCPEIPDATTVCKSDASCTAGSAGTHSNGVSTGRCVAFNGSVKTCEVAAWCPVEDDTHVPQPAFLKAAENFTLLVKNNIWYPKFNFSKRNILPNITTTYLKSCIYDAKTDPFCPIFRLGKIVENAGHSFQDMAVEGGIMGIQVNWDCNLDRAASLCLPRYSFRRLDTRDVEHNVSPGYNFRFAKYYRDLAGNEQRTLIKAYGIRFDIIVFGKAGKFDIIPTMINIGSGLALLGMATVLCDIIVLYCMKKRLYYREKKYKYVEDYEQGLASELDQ

[1] = molecular target: T2, human P2X4-E307T receptor mutant (Homo sapiens, UniProt Q99571, E307T); assay: ATP-induced calcium influx assay, P2X4-E307T mutant in 1321N1 astrocytoma cells; assay type: cell-based; conditions: P2X4-E307T
T2 construct: expressed in transfected cells
T2 sequence (Q99571 1-388 E307T): T1 sequence (Q99571 1-388) with E307T

human wt P2X2 receptor = molecular target: T3, human wt P2X2 receptor (Homo sapiens, UniProt Q9UBL9); assay: ATP-induced calcium influx assay, human wt P2X2 receptor in 1321N1 astrocytoma cells; assay type: cell-based
T3 construct: expressed in transfected cells
T3 sequence (Q9UBL9 1-471): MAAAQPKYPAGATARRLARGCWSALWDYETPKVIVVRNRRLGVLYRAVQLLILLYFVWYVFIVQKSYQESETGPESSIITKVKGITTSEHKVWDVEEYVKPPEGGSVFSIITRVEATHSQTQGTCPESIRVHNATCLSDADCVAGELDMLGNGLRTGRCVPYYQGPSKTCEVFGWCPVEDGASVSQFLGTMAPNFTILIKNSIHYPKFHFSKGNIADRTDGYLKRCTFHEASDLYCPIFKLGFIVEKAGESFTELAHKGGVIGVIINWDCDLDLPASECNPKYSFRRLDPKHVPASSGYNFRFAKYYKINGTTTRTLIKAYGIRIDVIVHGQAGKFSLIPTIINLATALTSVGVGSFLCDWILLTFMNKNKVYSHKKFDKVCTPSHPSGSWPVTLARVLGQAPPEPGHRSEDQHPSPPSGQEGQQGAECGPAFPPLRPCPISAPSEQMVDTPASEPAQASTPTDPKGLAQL

[2] = tested on: chimeric receptor c1^V71-I83; design: method as in PMID 36328074; conditions: cited from earlier work
[3] = molecular target: chimeric P2X4(P2X2) receptor c2-c5^C116-T186 (Homo sapiens, UniProt Q99571, A122H/A137L/A177Q/A181M/D121V/DEL149-175/E183P/G138D/H140L/INS118S/INS148CVPYYQGPSKTCEVFGWCPVEDGASV/INS179G/K127L/K180T/P120R/P176S/S131D/S136E/S141G/S145R/T123N/T124A/T133V/T139M/V125T/V144L); assay: cell-based
chimeric P2X4(P2X2) receptor c2-c5^C116-T186, sequence (Q99571 with tags, fused parts or gaps isoform Q99571-3 with the stated changes): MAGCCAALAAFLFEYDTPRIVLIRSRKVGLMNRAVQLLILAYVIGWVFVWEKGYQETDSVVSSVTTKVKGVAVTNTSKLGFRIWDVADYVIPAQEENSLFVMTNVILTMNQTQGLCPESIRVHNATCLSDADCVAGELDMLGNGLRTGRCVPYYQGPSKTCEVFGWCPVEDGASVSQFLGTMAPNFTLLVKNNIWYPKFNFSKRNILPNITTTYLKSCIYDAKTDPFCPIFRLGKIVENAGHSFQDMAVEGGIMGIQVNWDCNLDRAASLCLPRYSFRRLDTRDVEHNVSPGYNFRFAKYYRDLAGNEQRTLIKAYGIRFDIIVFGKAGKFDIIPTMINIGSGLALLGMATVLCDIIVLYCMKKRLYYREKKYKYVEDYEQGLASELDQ

[4] = molecular target: chimeric P2X4(P2X2) receptor c7^I218-D224 (Homo sapiens, UniProt Q99571, A221E/D220H/I218T/K222A/T223S/Y219F); assay: cell-based
chimeric P2X4(P2X2) receptor c7^I218-D224, sequence (Q99571 whole entry I218T/Y219F/D220H/A221E/K222A/T223S): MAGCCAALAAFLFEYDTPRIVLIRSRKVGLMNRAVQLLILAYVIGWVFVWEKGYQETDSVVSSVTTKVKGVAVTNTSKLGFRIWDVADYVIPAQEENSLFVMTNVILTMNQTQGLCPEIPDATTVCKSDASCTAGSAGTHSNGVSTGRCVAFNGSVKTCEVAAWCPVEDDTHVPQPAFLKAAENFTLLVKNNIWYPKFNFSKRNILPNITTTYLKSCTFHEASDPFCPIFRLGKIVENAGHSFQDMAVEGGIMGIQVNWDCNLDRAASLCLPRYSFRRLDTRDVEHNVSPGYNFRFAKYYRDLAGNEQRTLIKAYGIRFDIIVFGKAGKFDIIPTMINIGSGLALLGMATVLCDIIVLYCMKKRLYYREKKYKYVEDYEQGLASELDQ

[5] = molecular target: chimeric P2X4(P2X2) receptor c8^R265-L269 (Homo sapiens, UniProt Q99571, A266P/L269E/R265L); assay: cell-based
chimeric P2X4(P2X2) receptor c8^R265-L269, sequence (Q99571 whole entry R265L/A266P/L269E): as the sequence (Q99571 whole entry I218T/Y219F/D220H/A221E/K222A/T223S) above, with T218I, F219Y, H220D, E221A, A222K, S223T, R265L, A266P, L269E counted along it

[6] = molecular target: P2X4-D302I receptor mutant (Homo sapiens, UniProt Q99571, D302I); assay: cell-based
P2X4-D302I receptor mutant, sequence (Q99571 whole entry D302I): as the sequence (Q99571 whole entry I218T/Y219F/D220H/A221E/K222A/T223S) above, with T218I, F219Y, H220D, E221A, A222K, S223T, D302I counted along it

[7] = molecular target: T4, chimeric P2X4(P2X2) receptor c6^N208-S216 (Homo sapiens, UniProt Q99571, I209R/N208D/S216R/T211D/T212G); design: expressed in transfected cells; gene synthesis (Geneart), pLVX-IRES-mCherry; method as in ref 19 (supplement); conditions: read-out: ATP EC50, published value, ref 19 (supplement); cited from earlier work
T4 sequence (Q99571 1-388 N208D/I209R/T211D/T212G/S216R): T1 sequence (Q99571 1-388) with N208D, I209R, T211D, T212G, S216R

SMILES: Nc1ncnc2c1ncn2[C@@H]1O[C@H](COP(=O)(O)OP(=O)(O)OP(=O)(O)O)[C@@H](O)[C@H]1O [ATP, Adenosine 5′-triphosphate]
- EC50 (human wt P2X4 receptor): 357 nM
- EC50 [1]: 921 nM
- EC50 (human wt P2X2 receptor; ATP EC50, wt hP2X2, calcium influx): 637 nM
- EC50 (human wt P2X2 receptor; ATP pEC50 ± SEM, wt hP2X2): 759 nM
- Maximal effect of ATP compared to that of the human wt P2X4 receptor [2]: 4%
- EC50 [3]: 2290 nM
- EC50 [4]: 1200 nM
- EC50 [5]: 389 nM
- EC50 ([6]; ATP EC50, P2X4-D302I): 1600 nM
- EC50 ([6]; ATP pEC50 ± SEM, P2X4-D302I): 1410 nM
- EC50 [7]: 572 nM
